Test results taken from article PMC5586502 (Bioorganic & medicinal chemistry letters, 2017).

System: COX-1/2 (mixed COX-1 and COX-2)
Experiment: COX
Type: biochemical, ovine/human
Conditions: read-out: IC50 against COX-1/2; suggested from ~37% inhibition at 100 µM

COc1ccc(N(Nc2ccc(Br)cc2)c2ccccc2N(Nc2ccc(Br)cc2)c2ccccc2OC)cc1 [Compound 6]
IC50: > 100 µM
